Results reported in patent US20100184680A1, “THERAPEUTIC USES OF B-TYPE NATRIURETIC PEPTIDE AND HUMAN GROWTH HORMONE 1-43” (priority 2007, published 2010).
Bridge positions count the residues as written; N and C are the ends. Ends that are not written are not given here.

Assays:
HIV-1IIIB = test: HIV-1 antiviral assay in CEM-SS cells
HCMV strain AD169 = test: HCMV plaque formation assay in MRC-5 cells; assay type: cell-based
[1] = tested on: isolated buffer-perfused and ventilated rabbit lung; test: Isolated ventilated and buffer perfused lung model
Experimental: The isolated buffer-perfused and ventilated rabbit lung model is established for the investigation of the lung circulation, parenchyma, bronchial system and metabolic processes. Lungs are prepared from intact animals; the lungs are artificially ventilated and blood-free perfused. This model allows the study of pathophysiologic aspects under different conditions. Isolation of the intact lung enables observation of vasoreactivity, ventilation pressures and gas exchange avoiding humoral, central or metabolic influence. Lungs were perfused with test peptide BNP using a pulsatile flow roller pump in a closed system with recirculating buffer fluid. A rabbit ventilator enables the artificial ventilation with room air/carbon dioxide-mixture (CO2). Parameters continuosly measured include lung artery and left atrial pressure and ventilation pressure. Registration of lung weight gain serves as a parameter for development of lung edema. Samples of buffer fluid can be taken through the catheters.
Rabbits (New Zealand white bastards) of either sex, weighing 2.2-2.5 kg were anesthetized, using ketamine (Ketamin Inresa®, Inresa, Freiburg, Germany) and xylazine (Rompun®, Bayer, Leverkusen, Germany). Animals were anticoagulated with heparin (1000 U/kg body weight). After tracheotomy artificial ventilation was started with room air using a Havard respirator (tidal volume 8-12 ml/kg, frequency 30 breaths/min). Midsternal thoracotomy followed in a deep analgosedation and catheters were placed into the pulmonary artery and the left atrium. Lungs were perfused with sterile Krebs-Henseleit hydroxyethylamylopectine buffer (120 mM NaCl, 4.3 mM KCl, 1.1 mM KH2PO4, 25 mM NaHCO3, 2.4 mM CaCl2, 1.3 mM […], 2.4 g/L glucose) and 2.5% hydroxyethylamylopectine (mol weight 200,000) as an oncotic agent (Serag Wiesner, Naila, Germany). All concentrations are given as the final concentration in the buffer fluid.
The isolated lungs were freely suspended from an electronic force transducer (Transducer U1, Hottinger Baldwin Messtechnik, Darmstadt, Germany) in a humidified and tempered glas thorax. Perfusion was performed at a constant rate of 120 mL/min in a recirculating manner (total perfusate volume 300 mL), and the whole system was heated to 38° C. Room air, supplemented with ˜4% carbon dioxide was used for artificial ventilation to reach a pH of 7.34 to 7.38 and a positive end exspiratory pressure (PEEP) was set at 1-1.3 mmHg. Pressure in left atrium was set at 1.2 mmHg (reference point hilum). Pulmonary artery and ventilation pressures were continuously measured and are shown as mean values.
Independent variables in all experiments were: constant perfusion flow rate of 120 ml/min and a ventilator setting (tidal volume 8-12 ml/kg; frequency 30 breaths/min). The main dependent variables included: pressures in trachea and artery which were continuously measured. Lung weight gain as a parameter of lung edema formation was also continuously registered. Under constant flow condition, elevation of the artery pressure directly reflected an increase in vascular resistance.
Thromboxan A2 mimetic U46619 induces vasoconstriction: Lung artery pressure under resting conditions is about 8 mmHg. Slow titration, followed by continuous infusion of the thromboxan A2 mimetic U46619 causes precapillary vasoconstriction of about 25 mmHg. An observation period of up to 3 hours is accessible for further intervention.
Endothelin 1 (ET1) vasoconstricts the lung vasculature and leads to increased pressure in the isolated rabbit lung in a biphasic matter that is dose dependent. Infusion or inhalation of the test peptide of the invention is tested for therapeutic effect of lowering the vasoconstriction.
All data are shown as mean and standard error of mean (SEM). For primary data analysis, comparison was performed between the U46619 group and intravascular administered peptide. […]

Human A549 cells = test: Apoptosis prevention assay (C2 ceramide, Annexin-5); assay type: cell-based; conditions: 10 micrograms per ml, 30 min pretreatment
Experimental: Human A549 cells (carcinomic human alveolar basal epithelial cells) were utilized in the experiments employing the Annexin-5 apoptosis assay. […] A549 cells were pretreated for 30 min with test peptides—10 micrograms per ml—followed by the exposure to C2 ceramide.

[2] = tested on: Primary Human endothelial cells (HUVEC); test: Endothelial cell migration assay; assay type: cell-based; conditions: 10 micrograms per ml, 22 hours
[3] = tested on: Tumor Necrosis Factor-α (TNF-α); test: Th1/Th2 cytokine profiling assay: TNF-α; assay type: cell-based, Balb/c mice; conditions: 10 micrograms per ml; Ovalbumin restimulation; 72 hours
Excerpt: (§1) The Balb/c mice (originated in 1923, it is a popular strain and is used in many different research disciplines. Also classified as an inbred from the production of 20 or more successive brother-sister matings, the Balb/c mouse is albino and small in size) were immunized on Days 1, 15, and 29 with Ovalbumin (Ovalbumin is the main protein found in egg white, commonly used to stimulate an immunological reaction in test animals) in PBS (5 micrograms/injection). On day 50, spleens of the mice were harvested (3 weeks after last boost with Ovalbumin). Cells were cultured (2×10^5/well in triplicate) and incubated with culture medium or test peptides—10 micrograms per ml—for 30 min. Thereafter, additional Ovalbumin was added to the cells at 10 micrograms/ml for in vitro restimulation of the cells. 72 hours later, cell supernatants were harvested and assayed using the Becton Dickinson Mouse Th1/Th2 Cytokine CBA Kit. This kit can be used to measure Interleukin-2 (IL-2), Interleukin-4 (IL-4), Interleukin-5 (IL-5), Interferon-γ (IFN-γ), and Tumor Necrosis Factor-α (TNF-α) protein levels in a single sample. The kit performance has been optimized for analysis of physiologically relevant concentrations (pg/ml levels) of specific cytokine proteins in tissue culture supernatants and serum samples.

HUVEC = test: Endothelial tube formation assay; assay type: cell-based, human; conditions: 10 micrograms per ml, 20 hours
Excerpt: Positive control was vehicle only.

Interleukin-4 (IL-4) = test: Th1/Th2 cytokine profiling assay: IL-4; assay type: cell-based, Balb/c mice; conditions: 10 micrograms per ml; Ovalbumin restimulation; 72 hours
Excerpt: (§2) The Balb/c mice (originated in 1923, it is a popular strain and is used in many different research disciplines. Also classified as an inbred from the production of 20 or more successive brother-sister matings, the Balb/c mouse is albino and small in size) were immunized on Days 1, 15, and 29 with Ovalbumin (Ovalbumin is the main protein found in egg white, commonly used to stimulate an immunological reaction in test animals) in PBS (5 micrograms/injection). On day 50, spleens of the mice were harvested (3 weeks after last boost with Ovalbumin). Cells were cultured (2×10^5/well in triplicate) and incubated with culture medium or test peptides—10 micrograms per ml—for 30 min. Thereafter, additional Ovalbumin was added to the cells at 10 micrograms/ml for in vitro restimulation of the cells. 72 hours later, cell supernatants were harvested and assayed using the Becton Dickinson Mouse Th1/Th2 Cytokine CBA Kit.

Interleukin-2 (IL-2) = test: Th1/Th2 cytokine profiling assay: IL-2; assay type: cell-based, Balb/c mice; conditions: 10 micrograms per ml; Ovalbumin restimulation; 72 hours
Excerpt: as §1

Interleukin-5 (IL-5) = test: Th1/Th2 cytokine profiling assay: IL-5; assay type: cell-based, Balb/c mice; conditions: 10 micrograms per ml; Ovalbumin restimulation; 72 hours
Excerpt: as §2

Interferon-γ (IFN-γ) = test: Th1/Th2 cytokine profiling assay: IFN-γ; assay type: cell-based, Balb/c mice; conditions: 10 micrograms per ml; Ovalbumin restimulation; 72 hours
Excerpt: as §1

cGMP = test: Cyclic GMP measurement in the rabbit lung model; conditions: buffer samples from left atrial catheter; RIA; administration dependent
Experimental: Buffer samples were drawn from the left atrial catheter in the isolated buffer-perfused and ventilated rabbit lung model at predefined time points, every 30 minutes in the control group and every 15 minutes in the intervention groups. Samples were immediately frozen and stored at −80° Celsius. Analysis of cGMP was performed using a commercially available radio immuno (RIA) assay kit.

[4] = increasing doses of 5, 10 and 100 nM, isolated rabbit lung

**Q.** How did the “antiviral activity of positive control compounds (HIV-1)” value (HIV-1IIIB) turn out when `Cc1cn([C@H]2C[C@H](N=[N+]=[N-])[C@@H](CO)O2)c(=O)[nH]c1=O` [AZT] was run?
**A.** expected levels of antiviral activity

**Q.** Which “antiviral activity of positive control compound (HCMV)” value (HCMV strain AD169) does the source give for `Nc1nc(O)c2ncn(COC(CO)CO)c2n1` [Ganciclovir] here?
**A.** expected levels of antiviral activity

**Q.** `CCCCC[C@H](O)/C=C/[C@@H]1[C@@H](C/C=C\CCCC(=O)O)[C@H]2CO[C@@H]1C2` [U46619, reference compound] was tested. Which “vasoconstriction (lung artery pressure), plateau at the end of the experiment” value ([1]; continuous infusion, after another 135 minutes) did it give?
**A.** 25.53±0.9 mmHg

**Q.** What about the “vasoconstriction (lung artery pressure) provoked by continuous infusion” value ([1]; within 15 minutes, isolated rabbit lung) of the same compound?
**A.** 25.5±0.26 mmHg

**Q.** With `CC(C)(C)NC(=O)[C@@H]1CN(Cc2cccnc2)CCN1C[C@@H](O)C[C@@H](Cc1ccccc1)C(=O)N[C@H]1c2ccccc2C[C@H]1O` [indinavir] as the compound, how does the “antiviral activity of positive control compounds (HIV-1)” value (HIV-1IIIB) read?
**A.** expected levels of antiviral activity

**Q.** For “Endothelin 1 (CSCSSLMDKECVYFCHLDIIW; disulfide 1-15, 3-11; ends not checked; UniProt P05305 53-73, looked up) [ET1, Endothelin 1 (ET1) vasoconstricts the lung vasculature, reference compound]”, which “vasoconstriction (lung artery pressure), stable plateau phase” value ([1]; administration into the buffer fluid, rise over 60 minutes) is on record?
**A.** 27±2.16 mmHg

**Q.** How did the “prevented (reduced) ceramide-induced apoptosis on human lung cells” value (Human A549 cells) turn out when “Phe-Pro-Thr-Ile-Pro-Leu-Ser-Arg-Leu-Phe-Asp-Asn-Ala-Met-Leu-Arg-Ala-His-Arg-Leu-His-Gln-Leu-Ala-Phe-Asp-Thr-Tyr-Gln-Glu-Phe-Glu-Glu-Ala-Tyr-Ile-Pro-Lys-Glu-Gln-Lys-Tyr-Ser-OH (FPTIPLSRLFDNAMLRAHRLHQLAFDTYQEFEEAYIPKEQKYS-OH) [Peptide 2, Human growth Hormone (1-43); HGH]” was run?
**A.** 18.4%

**Q.** And the “induced the migration of human endothelial cells” value [2]?
**A.** 14%

**Q.** And the “TNF-a spleen cells; TH1 response (% of control)” value [3]?
**A.** 94.0 % of control

**Q.** And the “inhibited the tube formation of endothelial cells” value (HUVEC)?
**A.** 19%

**Q.** And the “IL-4 spleen cells; TH2 response (% of control)” value (Interleukin-4 (IL-4))?
**A.** 184.6 % of control

**Q.** And the “IL-2 spleen cells (% of control)” value (Interleukin-2 (IL-2))?
**A.** 132.2 % of control

**Q.** What about the “IL-5 spleen cells; TH2 response (% of control)” value (Interleukin-5 (IL-5)) of the same compound?
**A.** 78.2 % of control

**Q.** And the “IFNγ spleen cells; TH1 response (% of control)” value (Interferon-γ (IFN-γ))?
**A.** 60.3 % of control

**Q.** How did the “prevented (reduced) ceramide-induced apoptosis on human lung cells” value (Human A549 cells) turn out when “Ser-Pro-Lys-Met-Val-Gln-Gly-Ser-Gly-Cys-Phe-Gly-Arg-Lys-Met-Asp-Arg-Ile-Ser-Ser-Ser-Ser-Gly-Leu-Gly-Cys-Lys-Val-Leu-Arg-Arg-His [Peptide 1]” was run?
**A.** 14.4%

**Q.** What about the “inhibited the migration of human endothelial cells” value [2] of the same compound?
**A.** 21%

**Q.** What about the “TNF-a spleen cells; TH1 response (% of control)” value [3] of the same compound?
**A.** 93.1 % of control

**Q.** What about the “inhibited the tube formation of endothelial cells” value (HUVEC) of the same compound?
**A.** 3%

**Q.** What about the “IL-4 spleen cells; TH2 response (% of control)” value (Interleukin-4 (IL-4)) of the same compound?
**A.** 0.0 % of control

**Q.** What about the “arterial pressure under stable high vasoconstriction” value [1, 4] of the same compound?
**A.** rapid and dose dependent decline

**Q.** What about the lung weight [1, 4] of the same compound?
**A.** without affecting

**Q.** What about the ventilation pressure [1, 4] of the same compound?
**A.** without affecting

**Q.** And the “IL-2 spleen cells (% of control)” value (Interleukin-2 (IL-2))?
**A.** 0.0 % of control

**Q.** And the “IL-5 spleen cells; TH2 response (% of control)” value (Interleukin-5 (IL-5))?
**A.** 92.7 % of control

**Q.** And the cGMP levels (cGMP)?
**A.** significantly increased

**Q.** And the “IFNγ spleen cells; TH1 response (% of control)” value (Interferon-γ (IFN-γ))?
**A.** 66.1 % of control
